Experimental data reported in ChEMBL document CHEMBL1201862, “PubChem BioAssay data set” (2004).
The source made the active and inactive calls.

Key:
Fatty acid synthase [1] = target: T1, Fatty acid synthase (Homo sapiens, UniProt P49327); assay: inhibition of human FAS-TE enzyme activity – biochemical, endpoint fluorescence intensity, uHTS hits, dose response (AID 624327); format: functional;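 further: fluorescence from hydrolysis of an O-methyl fluorescein acyl ester substrate by the enzyme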
Fatty acid synthase [2] = target: T1, Fatty acid synthase; assay: inhibition of human FAS-TE enzyme activity – biochemical, kinetic fluorescence intensity, dose response (AID 624326); format: functional;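 further: rate of fluorescence rise from hydrolysis of a fluorogenic O-methyl fluorescein ester substrate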
[3] = intracellular Trypanosoma cruzi inhibitors in host cells – cell-based, plate reader, cherry-pick samples, set 3, dose response (AID 651818); format: functional;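 further: compounds incubated with infected cells for about four days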
[4] = target: T2, Heat shock factor protein 1 (Mus musculus, UniProt P38532); assay: decrease of HSF1-responsive luciferase luminescence – cell-based, NIH3T3, dose retest, confirmation (AID 2382); format: functional;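 further: NIH3T3 fibroblasts with HSF1-driven luciferase reporter stressed by proteasome inhibitor MG132; luminescence from HSF1-driven luciferase expression after 8 hours of MG132 stress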
T2 sequence (P38532 whole entry): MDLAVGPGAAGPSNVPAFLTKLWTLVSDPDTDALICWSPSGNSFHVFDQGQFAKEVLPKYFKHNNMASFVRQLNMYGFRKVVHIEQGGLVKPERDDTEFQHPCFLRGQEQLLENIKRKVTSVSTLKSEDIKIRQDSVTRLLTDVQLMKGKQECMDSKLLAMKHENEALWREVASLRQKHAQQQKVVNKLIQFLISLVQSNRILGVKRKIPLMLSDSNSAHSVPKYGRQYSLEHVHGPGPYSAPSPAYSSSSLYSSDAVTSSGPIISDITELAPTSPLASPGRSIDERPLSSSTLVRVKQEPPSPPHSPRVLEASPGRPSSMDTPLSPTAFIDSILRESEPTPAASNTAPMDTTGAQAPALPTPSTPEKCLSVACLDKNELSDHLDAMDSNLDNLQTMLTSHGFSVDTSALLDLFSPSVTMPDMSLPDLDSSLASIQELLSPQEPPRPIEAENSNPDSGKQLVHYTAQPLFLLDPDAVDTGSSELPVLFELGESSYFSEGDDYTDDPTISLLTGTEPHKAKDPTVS

[5] = blockers of bursicon-stimulated LGR2 cAMP reporter – cell-based, HEK293, CRE-luciferase reporter, cherry pick, set 2, dose response (AID 743343); format: functional;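 further: transfected cells were stimulated with diluted bursicon conditioned medium after compound addition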
[6] = blockade of melanocortin 4 receptor signaling – cell-based, plate reader, cherry pick, counter-screen for LGR2 antagonist project, dose response (AID 743444); format: functional;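 further: transfected HEK 293 cells stimulated with alpha-MSH peptide; potency of inhibitors of the alpha-MSH evoked signal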
[7] = target: Peroxisome proliferator-activated receptor gamma/Nuclear receptor coactivator 1 (Homo sapiens, UniProt P37231); assay: (§1) TR-FRET dose response biochemical High Throughput Screening assay for agonists of the steroid receptor coactivator 1 (SRC-1) recruitment by the peroxisome proliferator-activated receptor gamma (PPAR gamma): non-selective agonists. [Related pubchem assays (depositor defined):AID1300, AID1808, AID504735, AID631]; format: protein assay
Sequence of Peroxisome proliferator-activated receptor gamma/Nuclear receptor coactivator 1 (P37231 whole entry): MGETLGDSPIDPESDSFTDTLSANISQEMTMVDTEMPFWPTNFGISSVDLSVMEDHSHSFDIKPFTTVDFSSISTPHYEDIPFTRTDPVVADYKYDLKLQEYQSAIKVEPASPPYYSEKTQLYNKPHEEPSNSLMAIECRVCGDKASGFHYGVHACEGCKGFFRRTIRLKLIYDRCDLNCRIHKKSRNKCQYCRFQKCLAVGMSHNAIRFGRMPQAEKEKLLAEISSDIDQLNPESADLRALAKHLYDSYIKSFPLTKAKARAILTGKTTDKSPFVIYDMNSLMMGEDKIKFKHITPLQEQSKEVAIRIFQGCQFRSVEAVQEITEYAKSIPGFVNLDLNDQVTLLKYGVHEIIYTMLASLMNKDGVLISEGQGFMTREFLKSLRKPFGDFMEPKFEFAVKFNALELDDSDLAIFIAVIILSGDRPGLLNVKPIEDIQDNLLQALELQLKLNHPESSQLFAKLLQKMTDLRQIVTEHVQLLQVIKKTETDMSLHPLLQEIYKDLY
Sequence of Peroxisome proliferator-activated receptor gamma/Nuclear receptor coactivator 1 (Q15788 whole entry, further chain): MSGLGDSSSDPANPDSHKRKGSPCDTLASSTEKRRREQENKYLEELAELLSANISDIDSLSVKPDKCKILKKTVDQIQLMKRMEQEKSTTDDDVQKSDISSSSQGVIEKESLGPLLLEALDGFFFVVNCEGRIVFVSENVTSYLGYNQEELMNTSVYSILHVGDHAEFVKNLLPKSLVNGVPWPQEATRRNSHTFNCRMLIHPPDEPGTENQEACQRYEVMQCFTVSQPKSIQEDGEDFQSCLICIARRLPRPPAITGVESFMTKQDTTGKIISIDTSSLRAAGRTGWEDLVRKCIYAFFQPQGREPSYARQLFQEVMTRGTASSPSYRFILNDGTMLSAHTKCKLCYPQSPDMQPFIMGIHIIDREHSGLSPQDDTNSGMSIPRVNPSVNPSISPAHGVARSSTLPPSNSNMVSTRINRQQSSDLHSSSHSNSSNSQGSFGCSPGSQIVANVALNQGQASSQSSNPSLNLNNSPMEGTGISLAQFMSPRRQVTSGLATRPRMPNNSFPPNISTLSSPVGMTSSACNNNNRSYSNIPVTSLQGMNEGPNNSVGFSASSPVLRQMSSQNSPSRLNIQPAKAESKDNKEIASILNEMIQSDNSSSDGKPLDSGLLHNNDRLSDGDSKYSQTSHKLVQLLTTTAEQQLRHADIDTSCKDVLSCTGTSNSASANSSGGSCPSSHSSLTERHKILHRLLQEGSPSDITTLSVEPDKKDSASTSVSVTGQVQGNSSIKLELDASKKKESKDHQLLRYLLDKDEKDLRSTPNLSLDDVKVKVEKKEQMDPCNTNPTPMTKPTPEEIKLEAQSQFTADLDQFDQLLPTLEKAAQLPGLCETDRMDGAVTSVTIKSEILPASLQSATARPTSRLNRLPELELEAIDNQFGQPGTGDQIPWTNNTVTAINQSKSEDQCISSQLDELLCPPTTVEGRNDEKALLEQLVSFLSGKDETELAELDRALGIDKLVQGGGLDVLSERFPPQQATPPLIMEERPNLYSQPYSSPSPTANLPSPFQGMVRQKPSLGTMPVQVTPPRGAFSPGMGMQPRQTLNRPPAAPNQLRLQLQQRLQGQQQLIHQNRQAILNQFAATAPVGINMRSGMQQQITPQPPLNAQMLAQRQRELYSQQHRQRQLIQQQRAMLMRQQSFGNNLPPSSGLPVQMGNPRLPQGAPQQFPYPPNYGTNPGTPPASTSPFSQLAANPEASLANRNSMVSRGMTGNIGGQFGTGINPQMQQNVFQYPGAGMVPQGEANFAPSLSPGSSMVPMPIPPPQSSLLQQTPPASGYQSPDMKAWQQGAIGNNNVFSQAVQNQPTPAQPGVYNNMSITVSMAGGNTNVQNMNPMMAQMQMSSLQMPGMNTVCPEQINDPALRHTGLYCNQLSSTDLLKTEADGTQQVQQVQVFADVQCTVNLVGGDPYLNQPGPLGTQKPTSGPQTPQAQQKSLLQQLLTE

[8] = target: Peroxisome proliferator-activated receptor gamma/Nuclear receptor coactivator 3 (Homo sapiens, UniProt P37231); assay: as §1, with “3 (SRC-3)” for “1 (SRC-1)”, “assays: 1301 (Confirmation screen.), 1048 (Primary screen.)]” for “assays (depositor defined):AID1300, AID1808, AID504735, AID631]”; format: functional
[9] = target: Peroxisome proliferator-activated receptor gamma/Nuclear receptor coactivator 2 (Homo sapiens, UniProt P37231); assay: TR-FRET dose response biochemical High Throughput Screening assay for agonists of the steroid receptor coactivator 2 (SRC-2) recruitment by the peroxisome proliferator-activated receptor gamma (PPAR gamma): non-selective agonists. [Related pubchem assays: 1297, 1032 ]; format: functional
H9c2 = assay: cells; format: functional, cell-based; details: Rattus norvegicus, H9c2, Myocardium;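 further: confirmatory concentration-response retest of ultra-high-throughput screening hits for modulation of myocardial damage; cell death induced by hydrogen peroxide oxidative stress; compound pretreatment for 60 min then peroxide exposure for 2 h; potency is for protecting the cells against peroxide damage rather than for killing them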
[10] = HEK-293T cell viability reduction – luminescence, B-cell screen hits, cytotoxicity control for BCR NF-kB inhibitor project, dose response (AID 489021); format: functional, cell-based;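 further: HEK-293T cells carrying an NF-kB luciferase reporter; cells exposed to compound for about 14 hours before viability readout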
Paired box protein Pax-8 = Paired box protein Pax-8 (Homo sapiens, UniProt Q06710); assay: PAX8 transcriptional activity inhibition in RMG-I – RMG-I cells, luciferase, cherry-pick, dose response (AID 687027); format: functional, cell-based;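 further: luciferase reporter driven by Pax8 target thyroperoxidase promoter measured by SteadyGlo luminescence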
Sequence of Paired box protein Pax-8 (Q06710 whole entry): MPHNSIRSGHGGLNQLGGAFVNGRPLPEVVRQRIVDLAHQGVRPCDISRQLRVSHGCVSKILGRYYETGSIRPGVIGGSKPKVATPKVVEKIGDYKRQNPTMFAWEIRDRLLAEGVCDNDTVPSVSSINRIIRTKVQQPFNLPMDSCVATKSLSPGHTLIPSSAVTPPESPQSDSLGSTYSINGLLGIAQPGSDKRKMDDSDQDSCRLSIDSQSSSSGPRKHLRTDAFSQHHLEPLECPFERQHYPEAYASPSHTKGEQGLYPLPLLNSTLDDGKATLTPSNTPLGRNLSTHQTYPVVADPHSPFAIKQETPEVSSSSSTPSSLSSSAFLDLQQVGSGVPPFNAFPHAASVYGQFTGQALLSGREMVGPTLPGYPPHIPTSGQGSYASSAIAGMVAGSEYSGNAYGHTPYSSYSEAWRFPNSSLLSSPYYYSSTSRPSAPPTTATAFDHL

[11] = OVCAR-3 cell viability loss – plate reader, dry powder samples, PAX8 inhibitor project, dose response (AID 743044); format: functional, cell-based
[12] = IGROV1 cell killing – plate reader, dry powder samples, PAX8 inhibitor project, dose response (AID 743043); format: functional, cell-based; details: IGROV-1
[13] = OVCAR8 cell viability loss – plate reader, dry powder samples, PAX8 project, dose response (AID 743197); format: functional, cell-based; details: OVCAR-8
[14] = target: T3, Endoribonuclease toxin MazF (Escherichia coli K-12, UniProt P0AE70); assay: activation of MazEF endoribonuclease cleavage – biochemical, fluorescence, single-stranded RNA substrate, uHTS hits, dose response (AID 588481); format: functional
T3 sequence (P0AE70 whole entry): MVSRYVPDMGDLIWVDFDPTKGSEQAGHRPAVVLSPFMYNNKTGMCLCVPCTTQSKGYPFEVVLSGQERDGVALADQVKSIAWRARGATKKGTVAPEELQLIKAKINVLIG

[15] = target: T3, Endoribonuclease toxin MazF; assay: substrate-only fluorescence increase artefacts – biochemical, single-stranded RNase substrate, counter-screen for MazEF activator project, dose response (AID 588502); format: functional
INS1 = assay: INS-1E survival protection against cytokine death – cell-based, luminescence, retest, dose response (AID 449756); format: functional; details: Rattus norvegicus;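 further: cell death triggered by IL-1 beta plus TNF-alpha plus IFN-gamma mixture; protective hits raise ATP signal compared with cytokine alone wells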
[16] = reduction of Shn3 3'UTR-driven luciferase in osteoblasts – cell-based, Clone20 osteoblasts, firefly luciferase, cherry-picked, dose response (AID 624132); format: functional;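 further: firefly luciferase luminescence from reporter carrying the Shn3 3'UTR in osteoblasts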
[17] = loss of viability in HepG2 cells – cell-based, CellTiter-Glo, cherry-picked, cytotoxicity control for Shn3 inhibitor project, dose response (AID 624134); format: functional
[18] = non-specific 3'UTR reporter inhibition in Clone20-Shn3RL – cell-based, Renilla luciferase, cherry-picked, counter-screen for Shn3 inhibitor project, dose response (AID 624133); format: functional
[19] = THP-1 cell cytotoxicity, dose response, cytotoxicity control for non-replicating M. tuberculosis project (AID 489025); format: functional
fMet-Leu-Phe receptor = target: T4, fMet-Leu-Phe receptor (Homo sapiens, UniProt P21462); assay: formyl peptide receptor binders – dose response (AID 519); format: functional
T4 sequence (P21462 whole entry): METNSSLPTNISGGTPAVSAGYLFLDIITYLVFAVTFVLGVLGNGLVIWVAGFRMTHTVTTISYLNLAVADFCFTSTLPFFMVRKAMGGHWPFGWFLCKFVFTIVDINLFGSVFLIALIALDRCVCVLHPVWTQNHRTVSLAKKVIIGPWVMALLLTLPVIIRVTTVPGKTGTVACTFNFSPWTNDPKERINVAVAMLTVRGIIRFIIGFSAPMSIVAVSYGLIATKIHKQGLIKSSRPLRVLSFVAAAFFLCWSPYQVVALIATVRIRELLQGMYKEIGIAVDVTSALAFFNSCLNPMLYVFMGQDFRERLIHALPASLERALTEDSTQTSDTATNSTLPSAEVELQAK

[20] = target: T5, Oxysterols receptor LXR-beta (Homo sapiens, UniProt P55055); format: functional, cell-based;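 further: agonist activity at LXR measured by a cell-based luminescence readout across a dose range, run as a counterscreen for daf-12 agonists; HEK293 cells with Gal4-LXR fusion and GAL4-driven luciferase reporter; potency for activation of Gal4-LXR reporter so compounds are agonists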
T5 sequence (P55055 whole entry): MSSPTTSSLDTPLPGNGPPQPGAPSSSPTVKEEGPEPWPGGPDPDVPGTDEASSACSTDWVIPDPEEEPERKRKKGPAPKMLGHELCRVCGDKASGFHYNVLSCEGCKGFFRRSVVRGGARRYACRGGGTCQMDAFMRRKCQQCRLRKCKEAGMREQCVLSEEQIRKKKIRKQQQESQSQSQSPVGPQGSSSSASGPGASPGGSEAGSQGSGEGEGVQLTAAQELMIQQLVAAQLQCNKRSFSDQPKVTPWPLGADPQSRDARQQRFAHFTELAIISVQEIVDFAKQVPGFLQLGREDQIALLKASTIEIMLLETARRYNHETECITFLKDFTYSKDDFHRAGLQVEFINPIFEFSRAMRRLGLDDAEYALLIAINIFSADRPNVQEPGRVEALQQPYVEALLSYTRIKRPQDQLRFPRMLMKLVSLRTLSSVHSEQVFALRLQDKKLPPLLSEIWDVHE

T1 sequence (P49327 whole entry): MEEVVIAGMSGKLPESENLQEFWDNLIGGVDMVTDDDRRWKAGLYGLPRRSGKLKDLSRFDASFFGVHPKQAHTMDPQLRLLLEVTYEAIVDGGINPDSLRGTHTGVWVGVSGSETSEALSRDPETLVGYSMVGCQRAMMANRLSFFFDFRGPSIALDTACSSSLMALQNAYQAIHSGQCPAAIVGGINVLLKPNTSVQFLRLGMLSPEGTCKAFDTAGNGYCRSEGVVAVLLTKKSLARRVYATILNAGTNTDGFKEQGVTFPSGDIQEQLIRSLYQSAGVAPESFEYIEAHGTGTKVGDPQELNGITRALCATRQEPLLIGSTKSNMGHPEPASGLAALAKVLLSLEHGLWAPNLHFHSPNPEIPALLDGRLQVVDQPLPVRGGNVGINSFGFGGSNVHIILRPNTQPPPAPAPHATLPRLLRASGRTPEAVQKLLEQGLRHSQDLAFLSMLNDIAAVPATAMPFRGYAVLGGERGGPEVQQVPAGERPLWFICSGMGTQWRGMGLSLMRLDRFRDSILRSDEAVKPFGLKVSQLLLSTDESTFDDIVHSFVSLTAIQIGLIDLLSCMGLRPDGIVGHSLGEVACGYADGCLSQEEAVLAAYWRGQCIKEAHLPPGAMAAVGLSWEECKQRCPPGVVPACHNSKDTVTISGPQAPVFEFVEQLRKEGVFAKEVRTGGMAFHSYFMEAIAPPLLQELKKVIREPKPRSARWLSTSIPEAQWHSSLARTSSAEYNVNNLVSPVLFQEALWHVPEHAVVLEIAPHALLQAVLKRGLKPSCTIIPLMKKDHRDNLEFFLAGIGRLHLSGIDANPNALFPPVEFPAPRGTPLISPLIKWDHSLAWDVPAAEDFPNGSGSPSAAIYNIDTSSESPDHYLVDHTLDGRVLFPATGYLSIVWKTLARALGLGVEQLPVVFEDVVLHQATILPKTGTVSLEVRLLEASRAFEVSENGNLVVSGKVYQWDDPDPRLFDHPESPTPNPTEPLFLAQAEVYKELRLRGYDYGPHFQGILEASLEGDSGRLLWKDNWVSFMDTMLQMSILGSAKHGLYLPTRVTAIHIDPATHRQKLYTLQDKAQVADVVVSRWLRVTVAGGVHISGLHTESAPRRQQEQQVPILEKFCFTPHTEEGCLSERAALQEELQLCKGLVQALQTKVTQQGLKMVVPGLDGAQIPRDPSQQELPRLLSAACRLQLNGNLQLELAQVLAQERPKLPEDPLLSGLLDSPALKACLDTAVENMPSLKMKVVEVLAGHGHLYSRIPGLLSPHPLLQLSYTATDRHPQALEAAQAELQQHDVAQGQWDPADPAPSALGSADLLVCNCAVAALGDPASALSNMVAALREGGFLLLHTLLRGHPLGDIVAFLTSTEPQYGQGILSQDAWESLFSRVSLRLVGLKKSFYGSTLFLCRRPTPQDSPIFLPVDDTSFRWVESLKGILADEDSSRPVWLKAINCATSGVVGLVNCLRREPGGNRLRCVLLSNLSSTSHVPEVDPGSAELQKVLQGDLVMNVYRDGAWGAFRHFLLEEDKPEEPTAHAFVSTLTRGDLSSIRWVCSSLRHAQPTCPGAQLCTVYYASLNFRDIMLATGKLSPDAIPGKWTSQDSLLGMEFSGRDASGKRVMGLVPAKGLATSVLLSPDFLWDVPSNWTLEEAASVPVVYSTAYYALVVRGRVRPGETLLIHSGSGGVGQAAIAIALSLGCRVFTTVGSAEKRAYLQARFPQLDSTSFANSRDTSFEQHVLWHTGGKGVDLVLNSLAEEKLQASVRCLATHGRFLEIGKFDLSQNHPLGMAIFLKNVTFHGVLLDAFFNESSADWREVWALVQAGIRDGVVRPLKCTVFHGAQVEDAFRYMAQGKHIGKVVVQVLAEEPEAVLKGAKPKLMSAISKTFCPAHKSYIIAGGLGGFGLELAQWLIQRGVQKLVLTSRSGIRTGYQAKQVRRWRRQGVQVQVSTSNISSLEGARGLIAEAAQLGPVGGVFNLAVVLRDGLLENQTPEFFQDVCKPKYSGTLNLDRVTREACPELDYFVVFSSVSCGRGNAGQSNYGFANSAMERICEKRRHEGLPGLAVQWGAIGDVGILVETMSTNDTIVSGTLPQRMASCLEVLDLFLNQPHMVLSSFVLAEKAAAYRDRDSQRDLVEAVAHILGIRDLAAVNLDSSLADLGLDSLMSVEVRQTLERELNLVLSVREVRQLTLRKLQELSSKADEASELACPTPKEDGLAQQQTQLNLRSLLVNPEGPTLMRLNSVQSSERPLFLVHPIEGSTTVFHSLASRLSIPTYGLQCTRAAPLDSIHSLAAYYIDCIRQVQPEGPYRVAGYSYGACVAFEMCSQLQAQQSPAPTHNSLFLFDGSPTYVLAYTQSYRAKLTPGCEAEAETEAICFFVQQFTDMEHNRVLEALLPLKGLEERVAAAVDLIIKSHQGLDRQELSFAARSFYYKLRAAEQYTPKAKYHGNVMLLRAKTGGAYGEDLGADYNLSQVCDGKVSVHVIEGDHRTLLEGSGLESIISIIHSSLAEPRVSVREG

**Q.** What does the source list for `Cc1ccc(S(=O)(=O)N[N-][C+]2CCC(C(C)(C)C)CC2)cc1[N+](=O)[O-]`?
**A.** IC50 (Fatty acid synthase [1]): 53 µM (inactive); IC50 (Fatty acid synthase [2]): 80 µM (inactive)

**Q.** What does the source list for `CC(C)C[C@@]12C(=O)N(c3ccc(Br)cc3)C(=O)N1[C@H](c1ccc(Br)cc1)[C@@H]1C(=O)N(C(C)(C)C)C(=O)[C@@H]12`?
**A.** IC50 (Fatty acid synthase [1]): 15.9 µM (active); IC50 (Fatty acid synthase [2]): 14.6 µM (active)

**Q.** With `C[C@@H]1CN([C@@H](C)CO)C(=O)Cc2cc(NS(=O)(=O)c3ccc(F)cc3)ccc2O[C@@H]1CN(C)S(=O)(=O)c1ccc(Cl)cc1` as the compound, how does the AC50 [3] read?
**A.** The AC50 was 3.3 µM (active).

**Q.** For `CC(C)(C)n1ncc2c(=O)n(CC(=O)OCc3ccccc3)cnc21`, which EC50 [4] is on record?
**A.** Its EC50 is 23.5 µM (active).

**Q.** What about the AC50 [5] of the same compound?
**A.** Its AC50 is 2.51 µM (active).

**Q.** What about the AC50 [6] of the same compound?
**A.** Its AC50 is 2.3 µM (active).

**Q.** For `Nc1nc(-c2c[nH]c3ccccc23)cs1`, which EC50 [7] is on record?
**A.** Its EC50 is > 26.5 µM (inactive).

**Q.** What about the EC50 [8] of the same compound?
**A.** The EC50 was > 79.4 µM (not active).

**Q.** And the EC50 [9]?
**A.** Its EC50 is 24.2 µM (not active).

**Q.** And the IC50 (H9c2)?
**A.** The IC50 was > 79 µM (inactive).

**Q.** With `Cc1c(CCC(=O)O)c(=O)oc2cc3oc4c(c3cc12)CCCC4` as the compound, how does the IC50 [10] read?
**A.** The IC50 was > 80 µM (inactive).

**Q.** What does the source list for `C[C@@H]1CN([C@H](C)CO)C(=O)c2cc(NS(=O)(=O)c3ccc(Cl)cc3)ccc2O[C@@H](C)CCCCO[C@H]1CN(C)Cc1ccc2c(c1)OCO2`?
**A.** AC50 (Paired box protein Pax-8): 10.2 µM (active); AC50 [11]: 17.5 µM (active); AC50 [12]: 49.9 µM (active); AC50 [13]: 51.2 µM (active)

**Q.** Which EC50 [14] does the source give for `COC(=O)c1sc2nc(SCc3cccc(F)c3)n(N)c(=O)c2c1C` here?
**A.** Its EC50 is > 99 µM (inactive).

**Q.** What about the EC50 [15] of the same compound?
**A.** The EC50 was > 99 µM (inactive).

**Q.** Which results are given for `O=C(Nc1cccc(S(=O)(=O)Nc2ccc(Cl)cc2)c1)c1ccc(Cl)nc1`?
**A.** IC50 [10]: 49.5 µM (inactive); AC50 (INS1): 3.31 µM (active); AC50 [16]: 0.606 µM (active); AC50 [17]: 2.63 µM (active); AC50 [18]: 11.7 µM (active)

**Q.** For `N=c1oc2ccc(Cl)cc2cc1C(=O)NC1CCCCCC1`, which CC50 [19] is on record?
**A.** Its CC50 is 24 µM (active).

**Q.** For `CCOC(=O)c1cc(NC(=O)C2C3CCC(O3)C2C(=O)O)cc(C(=O)OCC)c1` (stereo not drawn), which Ki (fMet-Leu-Phe receptor) is on record?
**A.** The Ki was > 66.7 µM (inactive).

**Q.** Which AC50 [3] does the source give for `Cc1noc(C)c1S(=O)(=O)Nc1ccc2c(c1)CC(=O)N([C@@H](C)CO)C[C@@H](C)[C@@H](CN(C)Cc1ccc(C(=O)Nc3ccccc3N)cc1)O2` here?
**A.** The AC50 was 2.56 µM (active).

**Q.** For `CC(C)Sc1ncnc2c1oc1ccccc12`, which EC50 [7] is on record?
**A.** The EC50 was 39.2 µM (inactive).

**Q.** And the EC50 [8]?
**A.** Its EC50 is > 79.4 µM (not active).

**Q.** And the EC50 [9]?
**A.** The EC50 was 26.2 µM (not active).

**Q.** For `Cc1ccc(C(=N)NOC(=O)c2ccco2)cc1`, which EC50 [20] is on record?
**A.** The EC50 was > 67.5 µM (inactive).

**Q.** With `Cc1nc2ccc([N+](=O)[O-])cc2c(=O)n1Cc1ccc([N+](=O)[O-])cc1` as the compound, how does the IC50 (Fatty acid synthase [1]) read?
**A.** The IC50 was 9.22 µM (active).

**Q.** And the IC50 (Fatty acid synthase [2])?
**A.** The IC50 was 8.3 µM (active).
